{"source": "patent US8148337B2", "about": "“Vaginal compositions for treating pelvic tissue infections and traumas” (priority 2003, dated 2012)", "origin": "cited, not measured here", "key": {"chlamydial infection": {"system": "chlamydial infection", "settings": "orally as a single dose"}, "[1]": {"settings": "administered rectally"}}}
{"smiles": "CC[C@H]1OC(=O)[C@H](C)[C@@H](O[C@H]2C[C@@](C)(OC)[C@@H](O)[C@H](C)O2)[C@H](C)[C@@H](O[C@@H]2O[C@H](C)C[C@H](N(C)C)[C@H]2O)[C@](C)(O)C[C@@H](C)CN(C)[C@H](C)[C@@H](O)[C@]1(C)O", "note": "[azithromycin]", "values": [{"measurement": "women who experience side effects", "setting": "chlamydial infection", "value": 25, "unit": "%"}, {"measurement": "bioavailability", "setting": "[1]", "value": "highly variable and low"}]}
